Assay results: US20210169984A1, “SENSITIZING CANCER TO DEATH RECEPTOR AGONISTS WITH KINASE INHIBITORS” (The Johns Hopkins University, priority 2016, published 2021)

What was measured:
cancer patients = conditions: cited from earlier work
[1] = in vivo; cited from earlier work
[2] = system: TRAIL-resistant cancer cells (HT29, MDA-MB-231, LNCAP, DU145, PC3, A549); assay: Cell death after TRAIL / TRAILPEG alone in various cancer cells (FIG. 2A); type: cell-based, human; conditions: TRAIL 1 μg/mL for 24 hours
Protocol: Quantified cell death data after TRAIL (1 μg/mL) treatment for 24 hours in various cancer cell types are shown. Human tumor cell lines include: colon (HT-29, SW620, HCT116), prostate (PC3), breast (MDA-MD-231, MCF-7), lung (A549). HCT116 represents a TRAIL-sensitive colorectal tumor for comparison. HEK293T is a normal human kidney cell line.
A library of KIs was screened for TRAIL sensitization in various TRAIL-resistant cancer cells, including: HT29 (CRC), MDA-MB-231 (breast), LNCAP (prostate), DU145 (prostate), PC3 (prostate) and A549 (lung). […] The 355 KIs comprised of compounds targeting diverse kinases, including multi kinases, RTK (receptor kinase tyrosine), PI3K (phosphinistide 3-kinase), aurora kinases, including […] (mitogen-activated protein kinase). […] The interaction between KIs and TRAIL had been previously explored in vitro with the tyrosine KI sorafenib, a drug similar to regorafenib. However, such studies were mostly performed on cellular levels and not in in vivo models, combined with systemically administered recombinant TRAIL. Although a similar structure, regorafenib was newly approved in 2012. The interactions between the three other selected KIs and TRAIL have not been previously reported, in vitro or in vivo.

[3] = mouse, in vivo; cited from earlier work

Row | Substance | therapeutic benefit (cancer patients; cancer patients, monotherapy studies) | anticancer activity (cancer patients; combined with chemotherapy, lung and colon cancer patients) | tolerability (cancer patients; human, in vivo) | half-life [1] | TRAIL-induced apoptosis (cell death) by TRAIL [2] | circulating half-life [3]
1 | dulanermin: recombinant TRAIL, native-type, short-acting | failed to demonstrate a robust therapeutic benefit | did not reveal improved anticancer activity | broad tolerability | 5 min |  | 
2 | TRAIL: Tumor necrosis factor (TNF)-related apoptosis-inducing ligand, member of the TNF family |  |  |  |  | resistance to TRAIL-induced apoptosis | 66 min
